Article doi:10.1101/2023.12.04.569845, “Identification of 4-(6-((2-methoxyphenyl)amino)pyrazin-2-yl)benzoic acids as CSNK2A inhibitors with antiviral activity and improved selectivity over PIM3” (bioRxiv, 2023)
Like-named read-outs stand apart in the source and are kept apart here.

Assays:
Test in all cases: biochemical
Design in all cases: Thermal shift (DSF, SYPRO Orange) Tm shift of recombinant kinase domains at 10 uM compound
BRPF1 = target: T1, BRPF1 (Homo sapiens, UniProt P55201)
T1 sequence (P55201 1-1214): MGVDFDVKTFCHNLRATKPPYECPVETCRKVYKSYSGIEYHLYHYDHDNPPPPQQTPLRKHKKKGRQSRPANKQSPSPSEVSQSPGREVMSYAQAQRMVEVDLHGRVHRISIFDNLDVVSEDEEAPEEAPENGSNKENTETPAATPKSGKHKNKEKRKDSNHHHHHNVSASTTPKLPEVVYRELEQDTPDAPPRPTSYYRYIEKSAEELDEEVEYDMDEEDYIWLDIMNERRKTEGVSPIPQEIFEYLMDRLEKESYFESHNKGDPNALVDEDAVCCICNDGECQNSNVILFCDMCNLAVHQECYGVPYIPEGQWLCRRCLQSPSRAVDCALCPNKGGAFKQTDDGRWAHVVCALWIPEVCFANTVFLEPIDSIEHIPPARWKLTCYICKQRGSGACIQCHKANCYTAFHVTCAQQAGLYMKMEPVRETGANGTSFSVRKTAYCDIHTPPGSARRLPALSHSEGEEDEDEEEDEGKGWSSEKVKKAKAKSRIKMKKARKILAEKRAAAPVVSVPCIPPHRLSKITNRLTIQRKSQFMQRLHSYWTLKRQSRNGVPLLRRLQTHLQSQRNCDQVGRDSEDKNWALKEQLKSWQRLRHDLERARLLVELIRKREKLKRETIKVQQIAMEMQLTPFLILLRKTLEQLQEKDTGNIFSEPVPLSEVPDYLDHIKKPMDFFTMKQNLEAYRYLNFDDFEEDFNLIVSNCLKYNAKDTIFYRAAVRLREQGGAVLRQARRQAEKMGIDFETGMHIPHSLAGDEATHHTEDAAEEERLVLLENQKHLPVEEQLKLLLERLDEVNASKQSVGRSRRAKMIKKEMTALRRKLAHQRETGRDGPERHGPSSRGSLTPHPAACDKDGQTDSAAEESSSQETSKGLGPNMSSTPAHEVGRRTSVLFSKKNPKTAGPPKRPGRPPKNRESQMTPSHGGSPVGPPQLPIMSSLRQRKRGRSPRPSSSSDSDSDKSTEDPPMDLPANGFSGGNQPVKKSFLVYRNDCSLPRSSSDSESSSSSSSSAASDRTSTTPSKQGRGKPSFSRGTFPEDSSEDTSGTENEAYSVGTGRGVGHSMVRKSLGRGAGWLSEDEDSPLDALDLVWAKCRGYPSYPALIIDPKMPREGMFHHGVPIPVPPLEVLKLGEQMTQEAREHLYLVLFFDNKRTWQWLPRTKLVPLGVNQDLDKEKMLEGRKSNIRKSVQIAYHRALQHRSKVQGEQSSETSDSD

EPHA5 = EPHA5 (Homo sapiens, UniProt P54756)
FECH = target: T2, FECH (Homo sapiens, UniProt P22830)
T2 sequence (P22830 1-423): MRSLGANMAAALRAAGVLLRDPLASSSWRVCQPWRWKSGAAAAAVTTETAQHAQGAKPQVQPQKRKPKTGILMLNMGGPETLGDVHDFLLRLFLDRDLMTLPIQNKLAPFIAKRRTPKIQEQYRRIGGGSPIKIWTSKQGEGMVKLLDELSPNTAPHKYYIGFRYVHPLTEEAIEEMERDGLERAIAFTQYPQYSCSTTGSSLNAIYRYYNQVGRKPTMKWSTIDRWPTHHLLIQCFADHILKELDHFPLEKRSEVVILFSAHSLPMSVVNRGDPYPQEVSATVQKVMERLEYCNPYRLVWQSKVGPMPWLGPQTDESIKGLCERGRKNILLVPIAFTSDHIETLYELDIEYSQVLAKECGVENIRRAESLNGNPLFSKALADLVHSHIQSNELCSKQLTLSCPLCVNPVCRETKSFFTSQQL

FGFR1 = FGFR1 (Homo sapiens, UniProt P11362)
GPRK5 = target: T3, GPRK5 (Homo sapiens, UniProt P34947)
T3 construct: gene GRK5

JNK2 = target: T4, JNK2 (Homo sapiens, UniProt P45984)
T4 construct: gene MAPK9

MAP2K1 = MAP2K1 (Homo sapiens, UniProt Q02750)
MAPKAPK2 = MAPKAPK2 (Homo sapiens, UniProt P49137)
NDR2 = target: T5, NDR2 (Homo sapiens, UniProt Q9Y2H1)
T5 construct: gene STK38L

NQO2 = target: T6, NQO2 (Homo sapiens, UniProt P16083)
T6 sequence (P16083 1-231): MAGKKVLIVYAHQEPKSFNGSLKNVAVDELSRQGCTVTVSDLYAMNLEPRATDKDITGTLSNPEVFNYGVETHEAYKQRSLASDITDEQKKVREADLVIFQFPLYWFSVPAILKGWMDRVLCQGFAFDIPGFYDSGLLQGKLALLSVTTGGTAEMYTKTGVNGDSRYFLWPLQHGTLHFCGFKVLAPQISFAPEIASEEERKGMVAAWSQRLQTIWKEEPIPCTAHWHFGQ

Sequence of EPHA5 (P54756 whole entry): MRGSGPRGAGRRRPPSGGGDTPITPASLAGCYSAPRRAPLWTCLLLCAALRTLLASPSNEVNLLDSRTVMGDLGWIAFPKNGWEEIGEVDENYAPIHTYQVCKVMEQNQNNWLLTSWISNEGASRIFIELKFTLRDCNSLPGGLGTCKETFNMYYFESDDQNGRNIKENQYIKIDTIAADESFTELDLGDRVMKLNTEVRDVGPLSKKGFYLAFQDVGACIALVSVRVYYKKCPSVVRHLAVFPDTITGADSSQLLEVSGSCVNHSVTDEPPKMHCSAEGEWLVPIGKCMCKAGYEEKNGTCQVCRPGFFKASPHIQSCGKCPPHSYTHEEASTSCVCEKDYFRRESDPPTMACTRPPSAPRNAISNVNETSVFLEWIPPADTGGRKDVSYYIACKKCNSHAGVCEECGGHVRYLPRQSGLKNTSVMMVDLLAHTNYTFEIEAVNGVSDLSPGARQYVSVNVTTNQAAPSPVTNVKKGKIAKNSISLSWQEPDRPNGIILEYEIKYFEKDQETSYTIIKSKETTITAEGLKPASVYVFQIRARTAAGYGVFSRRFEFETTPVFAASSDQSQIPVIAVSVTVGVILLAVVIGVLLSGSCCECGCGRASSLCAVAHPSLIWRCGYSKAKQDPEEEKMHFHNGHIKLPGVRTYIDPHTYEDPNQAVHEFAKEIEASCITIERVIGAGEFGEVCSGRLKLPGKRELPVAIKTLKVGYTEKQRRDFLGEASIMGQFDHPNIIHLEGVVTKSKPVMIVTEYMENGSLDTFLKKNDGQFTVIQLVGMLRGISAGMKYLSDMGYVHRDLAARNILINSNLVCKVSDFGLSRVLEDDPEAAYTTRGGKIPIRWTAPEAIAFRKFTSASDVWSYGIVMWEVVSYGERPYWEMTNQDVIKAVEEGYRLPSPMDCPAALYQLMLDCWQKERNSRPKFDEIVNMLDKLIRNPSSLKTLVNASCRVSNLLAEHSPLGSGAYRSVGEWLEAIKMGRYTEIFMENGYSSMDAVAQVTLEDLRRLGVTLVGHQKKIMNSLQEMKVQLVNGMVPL
Sequence of MAP2K1 (Q02750 whole entry): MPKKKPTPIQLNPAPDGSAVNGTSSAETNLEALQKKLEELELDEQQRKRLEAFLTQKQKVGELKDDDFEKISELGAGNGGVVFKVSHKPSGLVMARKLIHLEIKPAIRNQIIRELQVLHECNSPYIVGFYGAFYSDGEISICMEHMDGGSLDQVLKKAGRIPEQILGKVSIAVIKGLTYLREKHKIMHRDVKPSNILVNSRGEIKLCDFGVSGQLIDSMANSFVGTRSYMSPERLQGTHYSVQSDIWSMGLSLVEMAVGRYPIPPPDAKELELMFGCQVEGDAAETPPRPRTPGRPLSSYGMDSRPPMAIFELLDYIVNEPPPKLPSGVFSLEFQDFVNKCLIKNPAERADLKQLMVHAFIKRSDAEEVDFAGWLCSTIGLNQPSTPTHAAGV
T3 sequence (P34947 whole entry): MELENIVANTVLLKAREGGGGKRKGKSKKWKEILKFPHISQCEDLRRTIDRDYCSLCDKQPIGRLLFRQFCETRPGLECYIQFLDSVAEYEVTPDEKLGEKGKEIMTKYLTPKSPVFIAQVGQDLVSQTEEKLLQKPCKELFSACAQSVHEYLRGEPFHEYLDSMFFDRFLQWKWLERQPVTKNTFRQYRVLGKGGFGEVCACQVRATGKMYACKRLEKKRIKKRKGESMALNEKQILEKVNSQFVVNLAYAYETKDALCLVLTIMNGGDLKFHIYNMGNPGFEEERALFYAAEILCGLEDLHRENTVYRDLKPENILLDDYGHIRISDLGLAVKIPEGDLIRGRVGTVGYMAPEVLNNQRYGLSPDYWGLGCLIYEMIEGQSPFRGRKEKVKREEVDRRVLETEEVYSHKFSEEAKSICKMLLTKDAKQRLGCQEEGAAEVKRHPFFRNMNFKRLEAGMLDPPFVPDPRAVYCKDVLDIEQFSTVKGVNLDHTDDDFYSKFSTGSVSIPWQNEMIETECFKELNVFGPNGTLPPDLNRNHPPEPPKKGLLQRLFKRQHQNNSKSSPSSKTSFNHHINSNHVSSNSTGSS
Sequence of MAPKAPK2 (P49137 whole entry): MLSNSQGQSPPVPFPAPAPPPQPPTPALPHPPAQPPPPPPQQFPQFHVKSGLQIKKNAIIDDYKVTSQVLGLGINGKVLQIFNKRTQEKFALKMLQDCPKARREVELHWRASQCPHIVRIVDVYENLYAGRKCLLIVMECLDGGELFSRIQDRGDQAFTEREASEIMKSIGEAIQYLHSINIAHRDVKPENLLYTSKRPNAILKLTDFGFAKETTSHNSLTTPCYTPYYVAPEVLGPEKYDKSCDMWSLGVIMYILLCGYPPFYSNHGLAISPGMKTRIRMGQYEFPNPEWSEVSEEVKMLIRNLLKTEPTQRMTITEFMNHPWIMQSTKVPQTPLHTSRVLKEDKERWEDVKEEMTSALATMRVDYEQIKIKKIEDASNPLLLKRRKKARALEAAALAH
T5 sequence (Q9Y2H1 whole entry): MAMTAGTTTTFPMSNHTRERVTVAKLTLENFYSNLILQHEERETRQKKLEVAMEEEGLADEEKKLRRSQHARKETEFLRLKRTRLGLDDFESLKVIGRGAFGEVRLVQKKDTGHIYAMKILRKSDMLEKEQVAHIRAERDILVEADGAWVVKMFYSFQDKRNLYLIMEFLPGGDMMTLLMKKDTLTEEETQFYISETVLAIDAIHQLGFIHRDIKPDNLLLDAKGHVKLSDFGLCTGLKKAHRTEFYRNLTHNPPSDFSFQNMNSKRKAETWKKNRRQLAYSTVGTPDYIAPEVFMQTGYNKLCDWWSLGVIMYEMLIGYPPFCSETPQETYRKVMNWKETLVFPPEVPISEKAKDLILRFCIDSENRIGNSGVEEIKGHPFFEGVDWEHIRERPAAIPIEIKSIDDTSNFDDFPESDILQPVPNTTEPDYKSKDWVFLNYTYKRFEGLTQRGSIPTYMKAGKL
T4 sequence (P45984 whole entry): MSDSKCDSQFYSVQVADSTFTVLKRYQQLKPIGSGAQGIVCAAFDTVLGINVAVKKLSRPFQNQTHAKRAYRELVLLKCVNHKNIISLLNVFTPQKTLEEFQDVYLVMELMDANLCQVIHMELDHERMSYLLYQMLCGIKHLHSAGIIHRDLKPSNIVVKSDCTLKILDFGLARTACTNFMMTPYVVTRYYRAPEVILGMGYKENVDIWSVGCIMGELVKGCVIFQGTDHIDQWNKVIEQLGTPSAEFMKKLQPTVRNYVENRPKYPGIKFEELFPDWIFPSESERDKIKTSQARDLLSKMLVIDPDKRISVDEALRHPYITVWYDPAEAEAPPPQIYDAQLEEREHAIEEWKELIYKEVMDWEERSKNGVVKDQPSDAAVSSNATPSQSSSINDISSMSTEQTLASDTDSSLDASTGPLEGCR
Sequence of FGFR1 (P11362 whole entry): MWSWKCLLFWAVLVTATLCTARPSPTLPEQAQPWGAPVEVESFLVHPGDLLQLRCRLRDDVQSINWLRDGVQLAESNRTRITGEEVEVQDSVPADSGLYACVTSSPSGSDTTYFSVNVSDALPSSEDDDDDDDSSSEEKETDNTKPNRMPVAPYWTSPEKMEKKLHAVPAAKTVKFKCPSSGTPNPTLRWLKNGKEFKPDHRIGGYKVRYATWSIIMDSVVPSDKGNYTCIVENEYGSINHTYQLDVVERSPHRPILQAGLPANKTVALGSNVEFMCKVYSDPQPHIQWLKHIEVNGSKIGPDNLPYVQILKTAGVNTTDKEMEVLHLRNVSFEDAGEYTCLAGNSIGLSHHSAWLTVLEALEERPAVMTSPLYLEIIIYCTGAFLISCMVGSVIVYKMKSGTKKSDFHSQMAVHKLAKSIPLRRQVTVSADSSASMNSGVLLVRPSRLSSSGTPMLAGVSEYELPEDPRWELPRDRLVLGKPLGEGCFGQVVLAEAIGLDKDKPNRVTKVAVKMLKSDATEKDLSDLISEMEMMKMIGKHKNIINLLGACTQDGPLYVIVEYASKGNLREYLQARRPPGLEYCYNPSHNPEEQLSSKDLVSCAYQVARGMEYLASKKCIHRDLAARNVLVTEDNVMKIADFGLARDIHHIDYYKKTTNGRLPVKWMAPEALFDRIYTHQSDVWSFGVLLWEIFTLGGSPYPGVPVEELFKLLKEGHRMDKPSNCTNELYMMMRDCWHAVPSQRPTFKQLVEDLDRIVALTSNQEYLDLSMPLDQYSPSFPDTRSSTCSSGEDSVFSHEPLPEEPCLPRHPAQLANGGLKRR

COc1ccc(OC(C)C)cc1Nc1cncc(-c2ccc(C(=O)O)cc2)n1 [7c]
ΔTm at 10 µM (BRPF1; read-out: 7c): 0 °C
ΔTm at 10 µM (EPHA5; read-out: 7c): 1 °C
ΔTm at 10 µM (FECH; read-out: 7c): 0 °C
ΔTm at 10 µM (FGFR1; read-out: 7c): 0 °C
ΔTm at 10 µM (GPRK5; read-out: 7c): 4 °C
ΔTm at 10 µM (JNK2; read-out: 7c): 0 °C
ΔTm at 10 µM (MAP2K1; read-out: 7c): 1 °C
ΔTm at 10 µM (MAPKAPK2; read-out: 7c): 0 °C
ΔTm at 10 µM (NDR2; read-out: 7c): -1 °C
ΔTm at 10 µM (NQO2; read-out: 7c): -1 °C

CC(C)Nc1ccc2cnn(-c3cncc(-c4ccc(C(=O)O)cc4)n3)c2c1 [compound 2, 2]
ΔTm at 10 µM (BRPF1; read-out: 2): 2 °C
ΔTm at 10 µM (EPHA5; read-out: 2): 2 °C
ΔTm at 10 µM (FECH; read-out: 2): 0 °C
ΔTm at 10 µM (FGFR1; read-out: 2): 1 °C
ΔTm at 10 µM (GPRK5; read-out: 2): 6 °C
ΔTm at 10 µM (JNK2; read-out: 2): 1 °C
ΔTm at 10 µM (MAP2K1; read-out: 2): 2 °C
ΔTm at 10 µM (MAPKAPK2; read-out: 2): 0 °C
ΔTm at 10 µM (NDR2; read-out: 2): -2 °C
ΔTm at 10 µM (NQO2; read-out: 2): -1 °C

CC(C)Oc1ccc2ccn(-c3cncc(-c4ccc(C(=O)O)cc4)n3)c2c1 [6c]
ΔTm at 10 µM (BRPF1; read-out: 6c): -1 °C
ΔTm at 10 µM (EPHA5; read-out: 6c): 2 °C
ΔTm at 10 µM (FECH; read-out: 6c): -3 °C
ΔTm at 10 µM (FGFR1; read-out: 6c): 0 °C
ΔTm at 10 µM (GPRK5; read-out: 6c): 4 °C
ΔTm at 10 µM (JNK2; read-out: 6c): 0 °C
ΔTm at 10 µM (MAP2K1; read-out: 6c): 1 °C
ΔTm at 10 µM (MAPKAPK2; read-out: 6c): -1 °C
ΔTm at 10 µM (NDR2; read-out: 6c): -1 °C
ΔTm at 10 µM (NQO2; read-out: 6c): -1 °C
